Where two headings read alike, the source gives them in different places. Positions of bridges follow the written chain, without caps; N, C: chain ends. Residues, ends and D or L forms follow the SMILES beside them. No end group written: not given here.
What was measured:
[1] = target: T1, Grb7-SH2 domain (Homo sapiens, UniProt Q14451); conditions: earlier work; cited from earlier work
T1 construct: made in house
Description: Three peptides were designed with Phe-Pro, Phe-Trp, or Phe-Arg incorporated at positions 9 and 10 of the amino acid sequence. […] Thus, it can be concluded that the lactam linkage confers a degree of rigidity sufficient to enha ...
Target sequence in this assay (Q14451 431-527 limits assumed): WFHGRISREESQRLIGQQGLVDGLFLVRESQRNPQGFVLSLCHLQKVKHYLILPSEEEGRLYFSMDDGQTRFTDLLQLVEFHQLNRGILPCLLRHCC

[2] = target: T1, Grb7-SH2 domain; assay: Surface plasmon resonance (SPR) binding to Grb7-SH2 domain; conditions: for Kd: SPR BIAcore T100, GST-Grb7-SH2 captured via anti-GST antibody on CM5 chip, 50mM Na3PO4, 150–300 mM NaCl, 1 mM DTT pH 7.4, peptides without Penetratin, 0.015 to 250 μM, triplicate injections, steady-state, single-site binding model, errors are SD from model, SD, read-out: equilibrium dissociation binding constant (KD)
Method: GST and GST-Grb7-SH2 proteins were expressed and purified as previously described. Briefly, Grb7-SH2 was expressed as a GST fusion, and protein was purified via GST affinity chromatography, followed by size exclusion chromatography.
SPR experiments were carried out as previously described using the BIAcore T100 [23, 26]. BIAcore CM5 series S sensor chips (GE Life Sciences, Paramatta, NSW, Australia) were utilised. Amine coupling was used to immobilise the anti-GST antibody (Abcam, Cambridge, UK) to all flow cells. The immobilisation levels were between 11,000 RU and 7700 RU. As a control, the first flow cell captured only GST. GST-Grb7-SH2 was immobilised on flow cell 2 at close to 2800 RU. Peptides were resuspended in an analysis buffer consisting of 50mM Na3PO4, 150–300 mM NaCl, and 1 mM DTT (pH 7.4). The peptide was injected over flow cells at 30 μL/min for 60–80 s in triplicates. Double-referenced SPR data were analysed using Scrubber 2.0 (BioLogic Software, Campbell, ACT, Australia) and Prism 9.2.0 (GraphPad Prism v9.0, San Diego, CA, USA).
Here, it should be noted that the peptides were tested in the absence of the Penetratin tail shown in the schematic (Figure 1). In brief, peptides, at a range of concentrations, flowed over the chip surface to which the Grb7-SH2 domain was tethered, and the response was detected over time. […] In order to quantitate the binding affinities, the equilibrium dissociation binding constants (KD) for each peptide were calculated using binding curves derived from the sensogram responses at equilibrium (Figure 2E).
Figure 2 SPR binding analysis of newly developed Grb7-SH2-targeting peptides. […] Errors are SD arising from model.

[3] = not told; cited from earlier work
[4] = target: T2, GST-Grb7-SH2 (UniProt Q14451 415-532); assay: SPR; BIAcore T100, CM5 chip; GST-Grb7-SH2 held (close to 2800 RU) on amine-coupled anti-GST antibody, GST alone on the reference flow cell; peptides 0.015 to 250 uM injected at 30 uL/min for 60-80 s in triplicates; 50 mM Na3PO4, 150-300 mM NaCl, 1 mM DTT, pH 7.4; KD from steady-state responses, single-site binding model; conditions: both partners purified
T2 construct: Captured on the chip by an anti-GST antibody; also called Grb7-SH2 domain
T2 sequence (Q14451 415-532): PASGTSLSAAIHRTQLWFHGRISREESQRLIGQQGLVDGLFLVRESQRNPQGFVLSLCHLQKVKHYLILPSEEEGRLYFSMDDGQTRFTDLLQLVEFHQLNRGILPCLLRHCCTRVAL

## G7-B1: bicyclic G7 peptide with O-allylserine-based olefin staple between positions 1 and 8 (SFEGYDNSFPC; bicyclic: O-allylserine at positions 1 and 8 (parent Ser) joined by olefin staple (ring-closing metathesis); thioether linkage from N-terminal amine (acetyl/CH2CO) to Cys11 side chain; C-terminal amid)
[1]
  Kd: 1500 nM

## NC(=O)C[C@@H]1NC(=O)[C@H](CC(=O)O)NC(=O)[C@H](Cc2ccc(O)cc2)NC(=O)CNC(=O)[C@H](CCC(=O)O)NC(=O)[C@H](Cc2ccccc2)NC(=O)[C@@H]2CCCCNC(=O)CC[C@H](NC1=O)C(=O)N[C@@H](Cc1ccccc1)C(=O)N[C@@H](Cc1c[nH]c3ccccc13)C(=O)N[C@H](C(N)=O)CSCC(=O)N2 [G7-B9] ({CH2CO}-KFEGYDNEFWC-NH2; lactam 1-8; thioether N-11; C-terminus assumed)
[2]
  Kd: 2680 ± 390 nM

## KFEGYDNEC (also: bicyclic or more (positions not given here)) [G7-B7]
[3]
  membrane permeability: membrane-impermeable

## NC(=O)C[C@@H]1NC(=O)[C@H](CC(=O)O)NC(=O)[C@H](Cc2ccc(O)cc2)NC(=O)CNC(=O)[C@H](CCC(=O)O)NC(=O)[C@H](Cc2ccccc2)NC(=O)[C@@H]2CCCCNC(=O)CC[C@H](NC1=O)C(=O)N[C@@H](Cc1ccccc1)C(=O)N1CCC[C@H]1C(=O)N[C@H](C(N)=O)CSCC(=O)N2 [G7-B8] ({CH2CO}-KFEGYDNEFPC-NH2; lactam 1-8; thioether N-11; C-terminus assumed)
[2]
  Kd: 860 ± 80 nM
[2]; ratio of SPR KD values
  fold increase in affinity over G7-18NATE: approximately 8 fold

## N=C(N)NCCC[C@@H]1NC(=O)[C@H](Cc2ccccc2)NC(=O)[C@@H]2CCC(=O)NCCCC[C@H](NC(=O)CSC[C@@H](C(N)=O)NC1=O)C(=O)N[C@@H](Cc1ccccc1)C(=O)N[C@@H](CCC(=O)O)C(=O)NCC(=O)N[C@@H](Cc1ccc(O)cc1)C(=O)N[C@@H](CC(=O)O)C(=O)N[C@@H](CC(N)=O)C(=O)N2 [G7-B10] ({CH2CO}-KFEGYDNEFRC-NH2; lactam 1-8; thioether N-11; C-terminus assumed)
[2]
  Kd: 1150 ± 408 nM

B1: G7-18NATE (peptide)
peptide: WFEGYDNTFPC
modifications: cyclic: thioether linkage that tethers the N-terminal amine to the cysteine side chain
notes: non-phosphorylated cyclic peptide of 11 amino acids identified by phage display; also called first-generation monocyclic peptide; source: synthetic peptide, bought: Purar Chemicals (RP-HPLC, >95% purity)
[4]
  Kd: 7830 nM

— publication PMC9138261, “Enhancing the Bioactivity of Bicyclic Peptides Targeted to Grb7-SH2 by Restoring Cell Permeability” (Biomedicines, 2022)
